“Also recorded” adds a separate entry of the source.
How the values were obtained:
[1] = tested on: Alox5 gene; assay: Gene expression in LSCs of CML mice with imatinib treatment (DNA microarray, RT-PCR); assay type: in vivo; settings: imatinib 150 mg/kg every 4 hours, 5 doses from day 13 post BMT
Description: (§1) Leukemic stem cells in CML (CML-SCs) are insensitive to BCR-ABL kinase inhibitors (Graham et al., 2002). A bone marrow transplantation (BMT) mouse model of CML is used as an assay system, in which bone marrow cells from donor mice pretreated with 5-fluorouracil (5-FU) and transduced with BCR-ABL result in development of CML in recipient mice (Li et al., 1999). Bone marrow cells from C57BL/6 (B6) mice are transduced with retrovirus containing BCR-ABL/GFP or GFP alone under conditions for induction of CML, followed by transplantation of the transduced cells into B6 recipient mice.
Fourteen days after BMT, bone marrow cells are isolated and subsequently sorted by FACS for LSCs (GFP^+Lin^−c-Kit^+Sca-1^+) (Hu et al., 2006). Total RNA is isolated from these BCR-ABL-expressing LSCs or from the GFP^+Lin^−c-Kit^+Sca-1^+ cells that only express GFP, and DNA microarray analysis is carried out to compare gene expression between BCR-ABL-expressing and non-BCR-ABL expressing Lin^−c-Kit^+Sca-1^+ cells.

[2] = tested on: leukemia cells, LSCs, LT-LSC and ST-LSC+MPP; assay: In vitro culture of bone marrow cells of CML mice with curcumin, live cell numbers by FACS; assay type: cell-based; settings: 20 μM, 6 days, vs buffer control
Procedure: Bone marrow cells are isolated from 6- to 10-week-old C57BL/6 (B6) mice induced with BCR-ABL, for example using the retroviral vector MSCV-IRES-eGFP carrying the p210 BCR-ABL cDNA to produce CML mice. Total bone marrow cells were cultured in vitro in the presence of StemSpan serum-free medium (StemCell Technologies, Vancouver, BC) supplemented with 10 μg/mL heparin (Sigma, St Louis, Mo.), 10 ng/mL mouse SCF, 20 ng/mL mouse TPO, 20 ng/mL mouse IGF-2 (all from R&D Systems, Minneapolis, Minn.), and 10 ng/mL human FGF-1 (Invitrogen, Carlsbad, Calif.). Half of the medium was replaced after 3 days with fresh medium. (Peng et al Blood, 15 Jul. 2007, Vol. 110, No. 2, pp. 678-685; Zhang and Lodish Blood, 1 Jun. 2005, Vol. 105, No. 11, pp. 4314-4320; de Haan et al. Dev Cell 2003; 4:241-251). The cells were cultured for 6 days in the presence or absence of the Alox5 inhibitor, curcumin at (1,7-Bis(4-hydroxy-3-methoxyphenyl)-1,6-heptadiene-3,5-dione; Calbiochem cat. no. 239802) a concentration of 20 μM in vitro (5×10^6 cells/6 cm tissue culture plate) at 37° C. in a 5% CO2 tissue culture incubator. […] Total live cell numbers were measured for leukemia cells, leukemia stem cells, long-term LSC (LT-LSC) and short-term LSCs with multipotent progenitor cells (ST-LSC+MPP). […]

[3] = tested on: K562 myeloid leukemia cells; assay: K562 cell proliferation, trypan blue live cell count; assay type: cell-based, human
Procedure: The cells are treated with curcumin at 5 different concentrations (20 μM; 40 μM; 60 μM; 80 μM; 100 μM) for 48, 72 and 96 hours. The cells are stained with trypan blue and counted. The total cell number of live cells is shown in the graph in FIG. 27. […] K562 is a human Bcr-Abl positive CML cell line, which was isolated from a CML patient in blast crisis (Koeffler, H. P., and Golde, D. W. 1980. Human myeloid leukemia cell lines: a review. […] This cell line is commonly used for screening compounds to detect anti-proliferative activities of leukemia cells and for the pharmacology and toxicology studies required for IND (Investigational New Drug) application. […] The cells are treated with zileuton at 7 different concentrations (10 μ[…]) for 48, and 72 hours. The cells are stained with trypan blue and counted. The total cell number of live cells following these treatments is shown in the graph in FIG. 28.

[4] = tested on: leukemia stem cells (CD34+CD38-); assay: Human CML CD34+CD38- cells in patient bone marrow culture, FACS; assay type: cell-based; settings: 48 h, untreated 1.4%
Procedure: Bone marrow was isolated from a CML patient. The cells were cultured in serum-free media (SFM: Iscove modified Dulbecco medium (Sigma-Aldrich) supplemented with a serum substitute bovine serum albumin[…][…], BIT9500 from […] Technologies), five growth factors (5GF: cocktail of 20 ng/mL recombinant human IL-3 (rhIL-3), 20 ng/mL rhIL-6, 100 ng/mL rhFlt3-ligand, 100 ng/mL rh stem cell factor, available from […] Technologies)) and zileuton at two doses, 300 μM or 600 μM, for 48 hours. The cells were analyzed by FACS and the percentages of leukemia stem cells (CD34+CD38-) were determined using anti CD34 and anti CD38 antibodies.

[5] = tested on: normal HSCs; assay: FACS of normal HSCs in zileuton-treated mice; assay type: in vivo
Procedure: Recipients of BCR-ABL-transduced wild type bone marrow cells are treated with zileuton (300 mg/kg of body weight, twice a day) beginning at 8 days after BMT. […] At days 20 and 90 post BMT (induction of CML), FACS analysis is performed. […] No suppression of normal HSCs is found in placebo- or zileuton-treated mice receiving wild type donor bone marrow cells transduced with MSCV-IRES-GFP retrovirus.

[6] = tested on: white blood cells; assay: Peripheral white blood cell counts of CML mice; assay type: in vivo; settings: 14 days after bone marrow transplantation
Description: (§2) Water is used as placebo.
The white blood cells are collected from the CML induced mice 14 days after bone marrow transplantation.

[7] = tested on: mice with CML induced by BCR-ABL-T315I; assay: Survival of mice with CML induced by BCR-ABL-T315I; assay type: in vivo; settings: zileuton n=11 vs placebo n=6
[8] = tested on: mice with BCR-ABL-induced CML; assay: Leukemia cell infiltration to lungs and spleens of CML mice; assay type: in vivo; settings: zileuton-treated CML mice
[9] = tested on: LSCs; assay: FACS of LT-LSCs and ST-LSCs/MPP cells in bone marrow of zileuton-treated CML mice; assay type: in vivo; settings: 300 mg/kg twice a day from day 8; days 20 and 90 post BMT
Procedure: Cell populations affected by Alox5 deficiency are determined using FACS analysis. BCR-ABL-transduced Alox5^−/− bone marrow cells are transplanted into recipient mice (n=4) to induce CML, and bone marrow cells from these mice are analyzed by FACS for percentages of total HSCs (Lin^−c-Kit^+Sca-1^+), LT-HSCs (Lin^−c-Kit^+Sca-1^+CD34^−), and ST-HSCs/MPP cells (Lin^−c-Kit^+Sca-1^+CD34^+).
Recipients of BCR-ABL-transduced wild type bone marrow cells are treated with zileuton (300 mg/kg of body weight, twice a day) beginning at 8 days after BMT. […] At days 20 and 90 post BMT (induction of CML), FACS analysis is performed.

[10] = biological target: T1, Alox5 (Mus musculus, UniProt P48999); assay: Plasma level of LTB4 in CML mice; settings: compared to placebo-treated CML mice
T1 sequence (P48999 1-674): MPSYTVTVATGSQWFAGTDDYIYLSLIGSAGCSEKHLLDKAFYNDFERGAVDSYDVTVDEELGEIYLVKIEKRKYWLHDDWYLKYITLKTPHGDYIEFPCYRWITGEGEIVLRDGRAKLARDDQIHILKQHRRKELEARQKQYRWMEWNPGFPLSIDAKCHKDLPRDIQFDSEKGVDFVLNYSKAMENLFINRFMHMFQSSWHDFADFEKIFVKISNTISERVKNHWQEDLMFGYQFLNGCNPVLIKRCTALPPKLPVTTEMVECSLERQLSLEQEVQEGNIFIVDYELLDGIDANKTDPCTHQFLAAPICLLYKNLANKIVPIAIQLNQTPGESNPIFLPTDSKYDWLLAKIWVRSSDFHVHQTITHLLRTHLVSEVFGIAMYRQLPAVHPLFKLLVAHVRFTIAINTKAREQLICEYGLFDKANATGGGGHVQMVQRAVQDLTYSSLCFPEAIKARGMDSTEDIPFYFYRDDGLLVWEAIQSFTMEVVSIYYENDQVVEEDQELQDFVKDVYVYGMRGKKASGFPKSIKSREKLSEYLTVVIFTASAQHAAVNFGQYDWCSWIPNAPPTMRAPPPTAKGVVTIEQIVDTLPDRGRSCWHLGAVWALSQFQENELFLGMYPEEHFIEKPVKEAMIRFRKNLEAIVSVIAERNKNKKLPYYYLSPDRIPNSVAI

[11] = tested on: GFP+Gr-1+ myeloid leukemia cells; assay: FACS of GFP+Gr-1+ myeloid leukemia cells in peripheral blood and bone marrow of treated CML mice; assay type: in vivo
Description: as §1, §2

Structure (SMILES): Cc1ccc(NC(=O)c2ccc(CN3CCN(C)CC3)cc2)cc1Nc1nccc(-c2cccnc2)n1 [Imatinib, 4-[(4-methylpiperazin-1-yl)methyl]-N-[4-methyl-3-[(4-pyridin-3-ylpyrimidin-2-yl)amino]-phenyl]-benzamide]
- Up-regulation of the Alox5 gene by BCR-ABL in LSCs [1]: not abolished; also recorded: not prevented

Structure (SMILES): COc1cc(C=CC(=O)CC(=O)C=Cc2ccc(O)c(OC)c2)ccc1O [Curcumin, 1,7-Bis(4-hydroxy-3-methoxyphenyl)-1,6-heptadiene-3,5-dione]
- Total live cell number of leukemia cells, LSCs, LT-LSC and ST-LSC+MPP [2]: reduced
- Number of live K562 cells ([3]; 20-100 μM, 72 or 96 hours): reduces the number of live cells in all groups
- Concentration at which an effect on live K562 cell number is shown ([3]; 48 hours): ≥ 40 µM

Structure (SMILES): CC(c1cc2ccccc2s1)N(O)C(N)=O (stereo not shown) [Zileuton, N-[1-(1-benzothien-2-yl)ethyl]-N-hydroxyurea]
- Percentage of leukemia stem cells (CD34+CD38-) ([4]; 300 μM): 1.1%
- Percentage of leukemia stem cells (CD34+CD38-) ([4]; 600 μM): 0.9%
- Differentiation of GFP- LT-HSCs in the same animals ([5]; CML mice, 300 mg/kg twice a day): did not lead to blocked differentiation
- Numbers of GFP+Lin-c-Kit+Sca-1+ cells in bone marrow or spleens ([5]; mice receiving MSCV-IRES-GFP-transduced wild type bone marrow, day 14 after BMT): does not result in a reduction
- White blood cell counts [6]: reduction of white blood cell counts less dramatically than does imatinib treatment
- Survival of mice with CML induced by BCR-ABL-T315I [7]: prolongs survival
- Number of live K562 cells ([3]; 10-400 μM, 48 hours): reduces the number of live cells in the 200 μM and 400 μM groups
- Number of live K562 cells ([3]; 10-400 μM, 72 hours): shows an effect at all concentrations
- Leukemia cell infiltration to the lungs and the spleens [8]: less severe leukemia cell infiltration
- Ratio of percentage of LT-LSCs to percentage of ST-LSCs/MPP cells [9]: increased with treatment
- Plasma level of LTB4 [10]: decreased
- Plasma level of LTB4 ([10]; listed as zileuton): reduction
- Percentage of GFP+Gr-1+ myeloid leukemia cells in the peripheral blood of CML mice ([11]; Day 11): 48.3%
- Percentage of GFP+Gr-1+ myeloid leukemia cells in the peripheral blood of CML mice ([11]; Day 14): 49.9%
- Percentage of GFP+Gr-1+ myeloid leukemia cells in the peripheral blood of CML mice ([11]; Day 21): 62.9%
- Percentage of GFP+Gr-1+ myeloid leukemia cells in the peripheral blood of CML mice ([11]; Day 28): 61.4%
- Percentage of GFP+Gr-1+ myeloid leukemia cells in the peripheral blood of CML mice ([11]; Day 35): 39.7%
- Percentage of GFP+Gr-1+ myeloid leukemia cells in the peripheral blood of CML mice ([11]; Day 42): 29.4%
- Percentage of GFP+Gr-1+ myeloid leukemia cells in the peripheral blood of CML mice ([11]; Day 60): 5.1%
- GFP+Gr-1+ myeloid leukemia cells in bone marrow ([11]; bone marrow, during the treatment): drop to low levels
- GFP+Gr-1+ cells in peripheral blood over time ([11]; from 11 days to 8 weeks): gradually decrease with time

— patent US8669289B2, “Methods and compositions relating to hematologic malignancies” (The Jackson Laboratory, priority 2009, dated 2014)
